Molecular target: CK2A1 (CK2α/β) (Homo sapiens, UniProt P68400)
Test: CK2 kinase assay, CK2A1 (CK2α/β)
Type: biochemical
Conditions: Table A; read-out: CK2A1 (CK2α/β) (IC50)

Chain of CK2A1 (CK2α/β) (P68400 whole entry, species assumed): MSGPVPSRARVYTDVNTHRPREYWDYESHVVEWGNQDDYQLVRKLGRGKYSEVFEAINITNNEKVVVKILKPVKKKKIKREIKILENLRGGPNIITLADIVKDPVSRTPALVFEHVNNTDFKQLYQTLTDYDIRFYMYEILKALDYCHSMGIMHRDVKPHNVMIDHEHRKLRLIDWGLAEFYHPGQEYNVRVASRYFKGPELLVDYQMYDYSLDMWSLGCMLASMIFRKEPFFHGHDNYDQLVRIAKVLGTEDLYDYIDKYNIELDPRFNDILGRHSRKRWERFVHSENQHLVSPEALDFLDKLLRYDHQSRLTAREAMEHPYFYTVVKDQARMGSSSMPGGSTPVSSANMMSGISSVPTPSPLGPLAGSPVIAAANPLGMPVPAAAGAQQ
Chain of CK2A1 (CK2α/β) (P67870 whole entry partner, species assumed): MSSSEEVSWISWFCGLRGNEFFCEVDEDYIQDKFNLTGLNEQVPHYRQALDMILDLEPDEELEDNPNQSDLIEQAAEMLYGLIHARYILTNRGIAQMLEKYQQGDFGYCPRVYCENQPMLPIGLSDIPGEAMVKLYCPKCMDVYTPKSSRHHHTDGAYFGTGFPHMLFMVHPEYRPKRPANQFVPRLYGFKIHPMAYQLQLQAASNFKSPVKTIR

Compound	IC50
N#Cc1cnc2c(NC3CC3)nc(Nc3cc(C(F)F)cc(N4CCC(NC5COC5)CC4)c3Cl)nn12 [Example 256, 2-((2-chloro-5-(difluoromethyl)-3-(4-(3-oxetanylamino)-1-piperidinyl)phenyl)amino)-4-(cyclopropylamino)imidazo[2,1-f][1,2,4]triazine-7-carbonitrile]	0.75 nM
CCNc1nc(Nc2ccc3c(c2)c(C#N)cn3C2CCN(C3CN(C(=O)OC)C3)CC2)nn2c(C#N)cnc12 [Example 836, methyl 3-(4-(3-cyano-5-((7-cyano-4-(ethylamino)imidazo[2,1-f][1,2,4]triazin-2-yl)amino)-1H-indol-1-yl)piperidin-1-yl)azetidine-1-carboxylate]	1.44 nM
CN1CCN(c2cc(C#N)cc(Nc3nc(NC4CC4)c4ncc(C#N)n4n3)c2Cl)CC1 [Example 1, 2-((2-chloro-5-cyano-3-(4-methyl-1-piperazinyl)phenyl)amino)-4-(cyclopropylamino)imidazo[2,1-f][1,2,4]triazine-7-carbonitrile]	0.9 nM
CNC(=O)CN1CC2(CCN(c3cc(C#N)cc(Nc4nc(NC5CC5)c5ncc(C#N)n5n4)c3Cl)CC2)C1 [Example 799, 2-(7-(2-chloro-5-cyano-3-((7-cyano-4-(cyclopropylamino)imidazo[2,1-f][1,2,4]triazin-2-yl)amino)phenyl)-2,7-diazaspiro[3.5]nonan-2-yl)-N-methylacetamide]	2.46 nM
CN(CCO)CC(=O)Nc1cc(C#N)cc(Nc2nc(NC3CC3)c3ncc(C#N)n3n2)c1Cl [Example 619, N-(2-chloro-5-cyano-3-((7-cyano-4-(cyclopropylamino)imidazo[2,1-f][1,2,4]triazin-2-yl)amino)phenyl)-2-((2-hydroxyethyl)(methyl)amino)acetamide]	1.66 nM
CC(C)(C(N)=O)N1CCC(c2cc(C#N)cc(Nc3nc(NC4CC4)c4ncc(C#N)n4n3)c2Cl)CC1 [Example 641, 2-(4-(2-chloro-5-cyano-3-((7-cyano-4-(cyclopropylamino)imidazo[2,1-f][1,2,4]triazin-2-yl)amino)phenyl)piperidin-1-yl)-2-methylpropanamide]	4.01 nM
COCCOCC(=O)N1CCN(c2cc(C#N)cc(Nc3nc(NC4CC4)c4ncc(C#N)n4n3)c2Cl)CC1 [Example 88, 2-((2-chloro-5-cyano-3-(4-((2-methoxyethoxy)acetyl)-1-piperazinyl)phenyl)amino)-4-(cyclopropylamino) imidazo[2,1-f][1,2,4] triazine-7-carbonitrile]	0.6 nM
N#Cc1cc(CN2CCC3(CC2)COC3)c(Cl)c(Nc2nc(NC3CC3)c3ncc(C#N)n3n2)c1 [Example 665, 2-((3-(2-oxa-7-azaspiro[3.5]nonan-7-ylmethyl)-2-chloro-5-cyanophenyl)amino)-4-(cyclopropylamino)imidazo[2,1-f][1,2,4]triazine-7-carbonitrile]	0.67 nM
C[C@@H](O)C(=O)N1CC2(CCN(c3cc(C#N)cc(Nc4nc(NC5CC5)c5ncc(C#N)n5n4)c3Cl)CC2)C1 [Example 794, (R)-2-((2-chloro-5-cyano-3-(2-(2-hydroxypropanoyl)-2,7-diazaspiro[3.5]nonan-7-yl)phenyl)amino)-4-(cyclopropylamino)imidazo[2,1-f][1,2,4]triazine-7-carbonitrile]	1.41 nM
N#Cc1cc(Nc2nc(NC3CC3)c3ncc(C#N)n3n2)c(F)cc1F [Example 414, 2-((5-cyano-2,4-difluorophenyl)amino)-4-(cyclopropylamino)imidazo[2,1-f][1,2,4]triazine-7-carbonitrile]	0.99 nM
CS(=O)(=O)N1CC(N2CCN(c3cc(C#N)cc(Nc4nc(NC5CC5)c5ncc(C#N)n5n4)c3Cl)CC2)C1 [Example 73]	0.74 nM
N#Cc1cc(CN2CCC(F)(F)CC2)c(Cl)c(Nc2nc(NC3CC3)c3ncc(C#N)n3n2)c1 [Example 477, 2-({2-chloro-5-cyano-3-[(4,4-difluoropiperidin-1-yl)methyl]phenyl}amino)-4-(cyclopropylamino)imidazo[2,1-f][1,2,4]triazine-7-carbonitrile]	2.43 nM
N#Cc1cc(Nc2nc(NC3CC3)c3ncc(C#N)n3n2)c(Cl)c(N2CCN(C(CO)CO)CC2)c1 [Example 539, 2-((2-chloro-5-cyano-3-(4-(1,3-dihydroxypropan-2-yl)piperazin-1-yl)phenyl)amino)-4-(cyclopropylamino)imidazo[2,1-f][1,2,4]triazine-7-carbonitrile]	0.93 nM
CC(=O)N1CC(N2CCN(c3cc(OC(F)F)cc(Nc4nc(NC5CC5)c5ncc(C#N)n5n4)c3Cl)CC2)C1 [Example 559, 2-((3-(4-(1-acetylazetidin-3-yl)piperazin-1-yl)-2-chloro-5-(difluoromethoxy)phenyl)amino)-4-(cyclopropylamino)imidazo[2,1-f][1,2,4]triazine-7-carbonitrile]	2.37 nM
COC1CN(CC(=O)N2CCN(c3cc(C#N)cc(Nc4nc(NC5CC5)c5ncc(C#N)n5n4)c3Cl)CC2)C1 [Example 585, 2-[(2-chloro-5-cyano-3-{4-[2-(3-methoxyazetidin-1-yl)acetyl]piperazin-1-yl}phenyl)amino]-4-(cyclopropylamino)imidazo [2,1-f][1,2,4]triazine-7-carbonitrile]	3.28 nM
N#Cc1cc(Nc2nc(NC3CC3)c3ncc(C#N)n3n2)c(Cl)c(N2CCN(C3CN(C(=O)CC(N)=O)C3)CC2)c1 [Example 519, 3-{3-[4-(2-chloro-5-cyano-3-{[7-cyano-4-(cyclopropylamino)imidazo[2,1-f][1,2,4]triazin-2-yl]amino}phenyl)piperazin-1-yl]azetidin-1-yl}-3-oxopropanamide]	3.2 nM
N#Cc1cc(Nc2nc(NC3CC3)c3ncc(C#N)n3n2)c(F)cc1OC[C@@H]1COCCN1 [Example 417, (S)-2-((5-cyano-2-fluoro-4-(morpholin-3-ylmethoxy)phenyl)amino)-4-(cyclopropylamino)imidazo[2,1-f][1,2,4]triazine-7-carbonitrile]	0.31 nM
COCC(O)CN1CCN(c2cc(C(F)F)cc(Nc3nc(NC4CC4)c4ncc(C#N)n4n3)c2Cl)CC1 (racemic) [Example 250, (+/−) 2-((2-chloro-5-(difluoromethyl)-3-(4-(2-hydroxy-3-methoxypropyl)-1-piperazinyl)phenyl)amino)-4-(cyclopropylamino)imidazo[2,1-f][1,2,4]triazine-7-carbonitrile]	0.73 nM
CS(=O)(=O)N1CC(N2CCC(c3cc(C#N)cc(Nc4nc(NC5CC5)c5ncc(C#N)n5n4)c3Cl)CC2)C1 [Example 321, 2-((2-chloro-5-cyano-3-(1-(1-(methylsulfonyl)azetidin-3-yl)piperidin-4-yl)phenyl)amino)-4-(cyclopropylamino)imidazo[2,1-f][1,2,4]triazine-7-carbonitrile]	0.66 nM
N#Cc1cnc2c(NC3CC3)nc(Nc3cc(C(F)F)cc(N4CCC(O)CC4)c3Cl)nn12 [Example 255, 2-((2-chloro-5-(difluoromethyl)-3-(4-hydroxy-1-piperidinyl)phenyl)amino)-4-(cyclopropylamino)imidazo[2,1-f][1,2,4]triazine-7-carbonitrile]	0.53 nM
CCNc1nc(Nc2cc(C#N)cc(C3CNC3)c2Cl)nn2c(C#N)cnc12 [Example 367, 2-((3-(azetidin-3-yl)-2-chloro-5-cyanophenyl)amino)-4-(ethylamino)imidazo[2,1-f][1,2,4]triazine-7-carbonitrile]	1.17 nM
N#Cc1cc(Nc2nc(NC3CC3)c3ncc(C#N)n3n2)c(Cl)c(N2CCN(C3CN(C(=O)[C@@H]4C[C@@H](O)CN4)C3)CC2)c1 [Example 498, 2-{[2-chloro-5-cyano-3-(4-{1-[(2S,4R)-4-hydroxypyrrolidine-2-carbonyl]azetidin-3-yl}piperazin-1-yl)phenyl]amino}-4-(cyclopropylamino)imidazo[2,1-f][1,2,4]triazine-7-carbonitrile]	5.48 nM
CC(=O)N1CCC[C@H]1C(=O)N1CCN(c2cc(C#N)cc(Nc3nc(NC4CC4)c4ncc(C#N)n4n3)c2Cl)CC1 [Example 83, 2-((3-(4-(1-acetyl-L-prolyl)-1-piperazinyl)-2-chloro-5-cyanophenyl)amino)-4-(cyclopropylamino) imidazo[2,1-f][1,2,4] triazine-7-carbonitrile]	0.63 nM
CO[C@@H]1CN(c2cc(C#N)cc(Nc3nc(NC4CC4)c4ncc(C#N)n4n3)c2Cl)C[C@@H]1NC(=O)OC1COC1 [Example 291, 3-oxetanyl ((3S,4R)-1-(2-chloro-5-cyano-3-((7-cyano-4-(cyclopropylamino)imidazo[2,1-f][1,2,4]triazin-2-yl)amino)phenyl)-4-methoxy-3-pyrrolidinyl)carbamate]	0.59 nM
COC1CCN(C2CN(c3cc(C(F)F)cc(Nc4nc(NC5CC5)c5ncc(C#N)n5n4)c3Cl)C2)CC1 [Example 260, 2-((2-chloro-5-(difluoromethyl)-3-(3-(4-methoxy-1-piperidinyl)-1-azetidinyl)phenyl)amino)-4-(cyclopropylamino)imidazo[2,1-f][1,2,4]triazine-7-carbonitrile]	2.12 nM
CCNc1nc(Nc2cc(C#N)cc(N3CC[C@H](NC(=O)OC)[C@@H](OP(=O)(O)O)C3)c2Cl)nn2c(C#N)cnc12 [Example 338, methyl ((3S,4S)-1-(2-chloro-5-cyano-3-((7-cyano-4-(ethylamino)imidazo[2,1-f][1,2,4]triazin-2-yl)amino)phenyl)-3-(phosphonooxy)-4-piperidinyl)carbamate]	0.82 nM
CC(C)(O)c1cc(C#N)cc(Nc2nc(NC3CC3)c3ncc(C#N)n3n2)c1Cl [Example 676, 2-((2-chloro-5-cyano-3-(2-hydroxypropan-2-yl)phenyl)amino)-4-(cyclopropylamino)imidazo[2,1-f][1,2,4]triazine-7-carbonitrile]	0.41 nM
CC(C)(C)CC(=O)N1CCC(c2cc(C#N)cc(Nc3nc(NC4CC4)c4ncc(C#N)n4n3)c2Cl)CC1 [Example 235, 2-((2-chloro-5-cyano-3-(1-(3,3-dimethylbutanoyl)-4-piperidinyl)phenyl)amino)-4-(cyclopropylamino)imidazo[2,1-f][1,2,4]triazine-7-carbonitrile]	3.86 nM

— patent US9273057B2 (Bristol-Myers Squibb Company, priority 2012, dated 2016)
